Several values for one entry are separate records, joined by “and”; a condition that tells them apart may be missing. Identical values can stand only once. Inconclusive results and toxic doses are left out.
Test system: CD2F1 mice, L1210 leukemia ip, survival T/C
Assay: NCI In Vivo Anticancer Drug Screen. Data for tumor model L1210 Leukemia (intraperitoneal) in CD2F1 (CDF1) mice
Details: higher = longer survival
Outline: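 Each value reflects a quotient of treated over vehicle control outcomes in mice with a transplanted tumor.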

[1] = endpoint: mean survival time, dose: 100.0 mg/kg/injection, schedule: Q04DX003 (ip), vehicle: saline with Tween-80
[2] = endpoint: mean survival time, dose: 200.0 mg/kg/injection, schedule: Q04DX003 (ip), vehicle: saline with Tween-80
[3] = endpoint: mean survival time, dose: 400.0 mg/kg/injection, schedule: Q04DX003 (ip), vehicle: saline with Tween-80
[4] = endpoint: mean survival time, dose: 12.5 mg/kg/injection, schedule: Q01DX009 (ip), vehicle: water
[5] = endpoint: mean survival time, dose: 25.0 mg/kg/injection, schedule: Q01DX009 (ip), vehicle: water

CC(C)(C)c1ccc(SC(=O)c2ccc(C(=O)Sc3ccc(C(C)(C)C)cc3)cc2)cc1
T/C (endpoint: mean survival time, dose: 25.0 mg/kg/injection, schedule: Q04DX002 (ip), vehicle: saline with Tween-80): 91 % of control | T/C (endpoint: mean survival time, dose: 50.0 mg/kg/injection, schedule: Q04DX002 (ip), vehicle: saline with Tween-80): 87 % of control | T/C (endpoint: mean survival time, dose: 100.0 mg/kg/injection, schedule: Q04DX002 (ip), vehicle: saline with Tween-80): 91 % of control and 102 % of control

O=c1[nH]c(-c2ccccc2)nc(-c2ccccc2)c1Cc1cc2c(cc1O)OCC2
T/C (endpoint: mean survival time, dose: 100.0 mg/kg/injection, schedule: Q01DX001 (ip), vehicle: saline): 103 % of control | T/C (endpoint: mean survival time, dose: 200.0 mg/kg/injection, schedule: Q01DX001 (ip), vehicle: saline): 92 % of control | T/C (endpoint: mean survival time, dose: 400.0 mg/kg/injection, schedule: Q01DX001 (ip), vehicle: saline): 92 % of control

C=C(Br)CSC#N
T/C [1]: 96 % of control | T/C [2]: 112 % of control | T/C [3]: 96 % of control

O=C(N/N=C/c1ccc(Cl)cc1)c1ccc(Cl)cc1
T/C [1]: 101 % of control | T/C [2]: 93 % of control | T/C [3]: 108 % of control

Nc1ncnc2c1nc(NCc1ccccc1)n2C1OC(CO)C(O)C1O (configuration not stated)
T/C (endpoint: mean survival time, dose: 12.5 mg/kg/injection, schedule: Q01DX005 (ip), vehicle: distilled water + Tween-80): 93 % of control | T/C (endpoint: mean survival time, dose: 25.0 mg/kg/injection, schedule: Q01DX005 (ip), vehicle: distilled water + Tween-80): 100 % of control and 95 % of control | T/C (endpoint: mean survival time, dose: 50.0 mg/kg/injection, schedule: Q01DX005 (ip), vehicle: distilled water + Tween-80): 92 % of control and 101 % of control | T/C (endpoint: mean survival time, dose: 100.0 mg/kg/injection, schedule: Q01DX005 (ip), vehicle: distilled water + Tween-80): 99 % of control and 93 % of control | T/C (endpoint: mean survival time, dose: 200.0 mg/kg/injection, schedule: Q01DX005 (ip), vehicle: distilled water + Tween-80): 99 % of control and 100 % of control | T/C (endpoint: mean survival time, dose: 400.0 mg/kg/injection, schedule: Q01DX005 (ip), vehicle: distilled water + Tween-80): 89 % of control

CC([NH-])CC(C)[NH-].O=C(O)C(=O)O.[Pt+2] (configuration not stated)
T/C (endpoint: mean survival time, dose: 12.5 mg/kg/injection, schedule: Q04DX003 (ip), vehicle: saline with Tween-80): 169 % of control | T/C (endpoint: mean survival time, dose: 12.5 mg/kg/injection, schedule: Q04DX003 (ip), vehicle: saline): 156 % of control | T/C (endpoint: mean survival time, dose: 25.0 mg/kg/injection, schedule: Q04DX003 (ip), vehicle: saline with Tween-80): 100 % of control | T/C (endpoint: mean survival time, dose: 25.0 mg/kg/injection, schedule: Q04DX003 (ip), vehicle: saline): 186 % of control

COc1ccc(N=c2ssc(SC)c2-c2ccccc2)cc1
T/C (endpoint: mean survival time, dose: 100.0 mg/kg/injection, schedule: Q01DX001 (ip), vehicle: saline with Tween-80): 102 % of control | T/C (endpoint: mean survival time, dose: 100.0 mg/kg/injection, schedule: Q01DX009 (ip), vehicle: saline with Tween-80): 103 % of control | T/C [1]: 101 % of control | T/C (endpoint: mean survival time, dose: 200.0 mg/kg/injection, schedule: Q01DX001 (ip), vehicle: saline with Tween-80): 100 % of control | T/C (endpoint: mean survival time, dose: 200.0 mg/kg/injection, schedule: Q01DX009 (ip), vehicle: saline with Tween-80): 102 % of control | T/C [2]: 102 % of control | T/C (endpoint: mean survival time, dose: 400.0 mg/kg/injection, schedule: Q01DX001 (ip), vehicle: saline with Tween-80): 102 % of control | T/C (endpoint: mean survival time, dose: 400.0 mg/kg/injection, schedule: Q01DX009 (ip), vehicle: saline with Tween-80): 103 % of control | T/C [3]: 98 % of control

O=C(Nc1cccc(Cl)c1)NC1CCC(CC2CCCCC2)CC1 (configuration not stated)
T/C [1]: 95 % of control | T/C [2]: 95 % of control | T/C [3]: 100 % of control

CCOC(=O)Nc1cccc2c1-c1ccccc1/C2=N\NC(N)=S
T/C (endpoint: mean survival time, dose: 50.0 mg/kg/injection, schedule: Q01DX001 (ip), vehicle: carboxymethylcellulose (CMC)): 102 % of control | T/C (endpoint: mean survival time, dose: 100.0 mg/kg/injection, schedule: Q01DX001 (ip), vehicle: carboxymethylcellulose (CMC)): 104 % of control | T/C (endpoint: mean survival time, dose: 200.0 mg/kg/injection, schedule: Q01DX001 (ip), vehicle: carboxymethylcellulose (CMC)): 98 % of control | T/C (endpoint: mean survival time, dose: 400.0 mg/kg/injection, schedule: Q01DX001 (ip), vehicle: carboxymethylcellulose (CMC)): 98 % of control

C[N+]1=C(c2ccccc2)CCC(C(C)(C)C)C1 (configuration not stated)
T/C (endpoint: mean survival time, dose: 37.5 mg/kg/injection, schedule: Q04DX003 (ip), vehicle: saline): 102 % of control | T/C (endpoint: mean survival time, dose: 75.0 mg/kg/injection, schedule: Q01DX001 (ip), vehicle: saline): 95 % of control | T/C (endpoint: mean survival time, dose: 75.0 mg/kg/injection, schedule: Q04DX003 (ip), vehicle: saline): 96 % of control | T/C (endpoint: mean survival time, dose: 150.0 mg/kg/injection, schedule: Q01DX001 (ip), vehicle: saline): 92 % of control | T/C (endpoint: mean survival time, dose: 150.0 mg/kg/injection, schedule: Q04DX003 (ip), vehicle: saline): 100 % of control

CCOc1c(F)ccc(F)c1-c1c(F)ccc(F)c1OCC
T/C [1]: 98 % of control | T/C [2]: 95 % of control | T/C [3]: 106 % of control

ClC1CC[N-]CC1.ClC1CC[N-]CC1.[Cl][Pt+2]([Cl])([Cl])[Cl]
T/C [4]: 123 % of control | T/C [5]: 110 % of control

O=C1C2C3C=CC(O3)C2C(=O)N1O (configuration not stated)
T/C [4]: 97 % of control | T/C [5]: 96 % of control

O=C(Nc1ccc(C2=NCCN2)cc1)c1ccc(NC(=O)c2ccc(C3=NCCN3)cc2)cc1
T/C (endpoint: median survival time, dose: 30.0 mg/kg/injection, schedule: Q01DX009 (ip), vehicle: saline): 166 % of control | T/C (endpoint: median survival time, dose: 60.0 mg/kg/injection, schedule: Q01DX009 (ip), vehicle: saline): 244 % of control

Source: PubChem BioAssay AID256 (DTP/NCI, 2004)
